From ChEMBL document CHEMBL1201862, “PubChem BioAssay data set” (2004)
Where “and” joins values, the source holds several entries; their conditions need not be identical. Identical values can stand only once.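 Results reflect a 48-hour exposure of cells in 96-well plates to compound at five concentrations. Here, GI50 denotes the concentration required for 50% inhibition of growth.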 Calls of active or inactive are those of the source. No stated cut-off is given here; in the data, active = GI50 up to about 1.1 µM and inactive = higher.

Experiments:
Assay in all cases: NCI anticancer screen, dose series, 48 h
NCI-H522 = system: NCI-H522
TK-10 = system: TK-10
MDA-MB-231 = system: MDA-MB-231
HCT-116 = system: HCT-116
NCI-H460 = system: NCI-H460
SN12C = system: SN12C
U-251 = system: U-251
SK-OV-3 = system: SK-OV-3
NCI/ADR-RES = system: NCI/ADR-RES
MDA-MB-435 = system: MDA-MB-435
ACHN = system: ACHN
HOP-62 = system: HOP-62
OVCAR-8 = system: OVCAR-8
EKVX = system: EKVX
UACC-257 = system: UACC-257
K562 = system: K562
SK-MEL-2 = system: SK-MEL-2
UACC-62 = system: UACC-62
RPMI-8226 = system: RPMI-8226
SNB-75 = system: SNB-75

| Compound | GI50 (NCI-H522) | GI50 (TK-10) | GI50 (MDA-MB-231) | GI50 (HCT-116) | GI50 (NCI-H460) | GI50 (SN12C) | GI50 (U-251) | GI50 (SK-OV-3) | GI50 (NCI/ADR-RES) | GI50 (MDA-MB-435) | GI50 (ACHN) | GI50 (HOP-62) | GI50 (OVCAR-8) | GI50 (EKVX) | GI50 (UACC-257) | GI50 (K562) | GI50 (SK-MEL-2) | GI50 (UACC-62) | GI50 (RPMI-8226) | GI50 (SNB-75) |
| --- | --- | --- | --- | --- | --- | --- | --- | --- | --- | --- | --- | --- | --- | --- | --- | --- | --- | --- | --- | --- |
| NCC1OC(n2cnc3c(=O)[nH]c(N)nc32)C(O)C1O (stereo not drawn) | > 100 µM (inactive) | > 59.7 µM (inactive) | > 100 µM (inactive) | > 100 µM (inactive) | > 100 µM (inactive) | > 100 µM (inactive) | > 100 µM (inactive) | > 100 µM (inactive) | > 100 µM (inactive) | > 100 µM (inactive) | > 100 µM (inactive) | > 100 µM (inactive) | > 100 µM (inactive) | > 100 µM (inactive) | > 100 µM (inactive) | 1 µM (active) | > 100 µM (inactive) | > 100 µM (inactive) | 2.13 µM (inactive) | – |
| NS(=O)(=O)c1ccc(Nc2c3ccccc3nc3c(C(=O)NCCCN(CCO)CCO)cccc23)cc1 | 18.2 µM (inactive) | 36.6 µM (inactive) | 61.1 µM (inactive) | – | 15.7 µM (inactive) | 16.4 µM (inactive) | 13.9 µM (inactive) | 27.2 µM (inactive) | > 100 µM (inactive) | 19.6 µM (inactive) | 37.2 µM (inactive) | 24.8 µM (inactive) | 28.6 µM (inactive) | 61.5 µM (inactive) | 31 µM (inactive) | 18.7 µM (inactive) | 20.1 µM (inactive) | 17.9 µM (inactive) | 22.3 µM (inactive) | – |
| COc1ccc(C2OC2C(=O)C23CC4CC(CC(C4)C2)C3)cc1 (stereo not drawn) | 45.5 µM (inactive) | > 100 µM (inactive) | 33 µM (inactive) | 58.6 µM (inactive) | 44.8 µM (inactive) | 36.8 µM (inactive) | 36.1 µM (inactive) | – | > 100 µM (inactive) | 48.6 µM (inactive) | > 100 µM (inactive) | 31.1 µM (inactive) | 38.3 µM (inactive) | > 100 µM (inactive) | 54.6 µM (inactive) | 27.2 µM (inactive) | – | 10.4 µM (inactive) | 25.2 µM (inactive) | > 10 µM (inactive) |
| O=C(C/N=C(\CN(c1ccccc1)c1ccccc1)Oc1c(Cl)cc(Cl)cc1Cl)N1c2ccccc2Sc2ccccc21 | 28.3 µM (inactive) | 43.9 µM (inactive) | > 100 µM (inactive) | 34.9 µM (inactive) | 56.4 µM (inactive) | 47.8 µM (inactive) | 53.5 µM (inactive) | 29.6 µM (inactive) | 57.9 µM (inactive) | 34.2 µM (inactive) | 39.9 µM (inactive) | > 100 µM (inactive) | 35.4 µM (inactive) | > 100 µM (inactive) | > 100 µM (inactive) | > 10 µM (inactive) | – | 4.61 µM (inactive) | 62.2 µM (inactive) | 22.3 µM (inactive) |
| CC(=O)OC(/C=C/c1ccccc1)P1(=O)N(CC(C)(C)C)[C@@H]2CCCC[C@H]2N1CC(C)(C)C (stereo partly drawn) | 3.76 µM (inactive) and 3.32 µM (inactive) | – | 9.68 µM (inactive) and 7.26 µM (inactive) | 4.14 µM (inactive) and 3.53 µM (inactive) | 6.24 µM (inactive) and 4.84 µM (inactive) | 10.4 µM (inactive) and 7.59 µM (inactive) | 8.81 µM (inactive) and 6.38 µM (inactive) | 15.2 µM (inactive) and 8.71 µM (inactive) | 5.89 µM (inactive) and 5.11 µM (inactive) | 7.36 µM (inactive) and 10 µM (inactive) | 10 µM (inactive) and 7.57 µM (inactive) | 16.2 µM (inactive) and 13.1 µM (inactive) | 6.56 µM (inactive) and 7.1 µM (inactive) | 5.27 µM (inactive) and 5.68 µM (inactive) | 4.07 µM (inactive) and 3.3 µM (inactive) | 5.02 µM (inactive) and 4.68 µM (inactive) | 11.1 µM (inactive) and 5.96 µM (inactive) | 9.2 µM (inactive) and 8.99 µM (inactive) | 3.1 µM (inactive) | – |
| O=C1CC[C@@]2(O)[C@H]3Cc4ccc(-c5ccccc5)c5c4[C@@]2(CCN3CC2CC2)[C@H]1O5 | 14.7 µM (inactive) | 17.6 µM (inactive) | 15.2 µM (inactive) | 16.9 µM (inactive) | 17.9 µM (inactive) | 24.2 µM (inactive) | 17 µM (inactive) | 23.9 µM (inactive) | 16.3 µM (inactive) | 13.2 µM (inactive) | 20.6 µM (inactive) | 22.4 µM (inactive) | 16.1 µM (inactive) | 19.6 µM (inactive) | 16 µM (inactive) | 24.3 µM (inactive) | 17.9 µM (inactive) | 12.2 µM (inactive) | 15.4 µM (inactive) | – |
| O=C1/C(=C/c2ccc(O)cc2)CCC1CNc1ccccc1 (stereo not drawn) | 2.4 µM (inactive) | 10.2 µM (inactive) | 14.4 µM (inactive) | 5.64 µM (inactive) | 26.3 µM (inactive) | 15 µM (inactive) | 16.4 µM (inactive) | 22.5 µM (inactive) | 19 µM (inactive) | 18.7 µM (inactive) | 12.3 µM (inactive) | 18.3 µM (inactive) | 16 µM (inactive) | 18.3 µM (inactive) | 16.7 µM (inactive) | 1.5 µM (inactive) | – | 13.1 µM (inactive) | 1.15 µM (inactive) | 26.2 µM (inactive) |
| COC(=O)C1=C(O)C(C(=O)OC)[C@]2(O)[C@H](C(=O)OC)[C@H]1C[C@@H](c1ccc(O)cc1)[C@H]2C(=O)OC (stereo partly drawn) | – | 25 µM (inactive) | 23.1 µM (inactive) | 27.7 µM (inactive) | 23.7 µM (inactive) | 17.7 µM (inactive) | 18.3 µM (inactive) | 26.5 µM (inactive) | 30.1 µM (inactive) | 18.7 µM (inactive) | 36.4 µM (inactive) | 18 µM (inactive) | 33.4 µM (inactive) | 32.3 µM (inactive) | 19.4 µM (inactive) | 22.8 µM (inactive) | – | 31.3 µM (inactive) | 27.9 µM (inactive) | 20 µM (inactive) |
| CC(=O)OC1CC[C@@]2(C)C(C1)CC(OC(C)=O)[C@@H]1C2CC(OC(C)=O)[C@]2(C)C(C(C)CC=C(c3ccc(Cl)cc3)c3ccc(Cl)cc3)CCC12 (stereo partly drawn) | 21.8 µM (inactive) | 80.4 µM (inactive) | 48 µM (inactive) | 19.6 µM (inactive) | 26.3 µM (inactive) | > 100 µM (inactive) | 60.5 µM (inactive) | > 100 µM (inactive) | > 100 µM (inactive) | > 100 µM (inactive) | 23.3 µM (inactive) | 94.4 µM (inactive) | 80.4 µM (inactive) | 97.1 µM (inactive) | 38.6 µM (inactive) | 15.2 µM (inactive) | – | – | 5.33 µM (inactive) | 49.5 µM (inactive) |
| CN(C)Cc1cc(C(=O)/C=C/c2c(Cl)cccc2Cl)cc(CN(C)C)c1O | 2.98 µM (inactive) | 14.4 µM (inactive) | 4.61 µM (inactive) | 6.04 µM (inactive) | 3.72 µM (inactive) | 5.82 µM (inactive) | 11.4 µM (inactive) | – | 4.57 µM (inactive) | 9.2 µM (inactive) | 2.8 µM (inactive) | 7.85 µM (inactive) | 3.55 µM (inactive) | 10.9 µM (inactive) | 4.46 µM (inactive) | 3.01 µM (inactive) | – | – | 4.78 µM (inactive) | 3.34 µM (inactive) |
